# Measured values taken from publication PMC11772769, “Selective cargo and membrane recognition by SNX17 regulates its interaction with Retriever” (EMBO Reports, 2024).
# How the values were obtained:
# [1] = Liposome co-sedimentation assay; assay type: binding; conditions: protein alone (2 μM) with PI3P-containing LUVs (1 mM), 25 mM Hepes pH 7.5, 200 mM NaCl, 1 h room temperature; Coomassie densitometry; mean ± SD
# Protocol: All lipids were purchased from Avanti Polar Lipids, INC. (Alabaster, AL) and dissolved in a final 20:9 molar ratio of chloroform:methanol. The lipid composition of liposomes consisted of DOPC, DOPE, DOPS, 18:1 PI(3)P, and 1,2-dioleoyl-sn-glycero-3-phosphoethanolamine-N-(lissamine rhodamine B sulfonyl) (18:1 Liss Rhod PE) in a final molar ratio of 44.7:29.3:20.0:5.0:1.0, respectively. Vesicles were prepared using the same thin-film hydration method described for GUVs, followed by extrusion to get a more homogeneous vesicle population. A mini extruder (Avanti Polar Lipids) and Whatman Nucleopore track-etched membranes with a pore size of 0.4 μm (Cytiva) were used to obtain Large Unilamellar Vesicles (LUVs). The extrusion buffer (25 mM Hepes pH 7.5, 1 mM TCEP) was supplemented with 250 mM raffinose pentahydrate to produce vesicles filled with raffinose. These vesicles can be separated from the aqueous solution in co-sedimentation assays by centrifugation (Julkowska et al, [2013]). […]
# For co-sedimentation experiments, the working buffer (25 mM Hepes pH 7.5, 200 mM NaCl, 1 mM TCEP), proteins (Retriever, HisSumo-SNX17, and His10-L2FBR or His10-LRP1ICD in a 2:2:4 μM ratio), and liposomes (1 mM final concentration) were sequentially mixed into 0.5 ml tubes. […] Quantification of signal intensity was determined using Empiria Studio Software (LI-COR). […]
# VPS26C = molecular target: T1, VPS26C (Homo sapiens, UniProt O14972); test: Isothermal titration calorimetry VPS26C with SNX17FERM-CT; assay type: binding; conditions: ITC, 30 μM VPS26C and 300 μM SNX17FERM-CT, 25 mM Hepes pH 7.5, 150 mM NaCl, 25 °C; also pull-down
# T1 construct: His-Sumo3 (N, cleaved yes); made in house; host or cells: Escherichia coli BL21(DE3)
# Protocol: Isothermal titration calorimetry (ITC) experiments were carried out on a Nano ITC calorimeter (TA Instruments). VPS26C and SNX17FERM-CT were dialyzed overnight at 4 °C against 25 mM Hepes pH 7.5, 150 mM NaCl, and 0.5 mM TCEP, and degassed for 30 min at 25 °C before titration. The titration experiments were conducted at 25 °C with one initial 1.5 μl injection followed by 19 injections of 2.5 μl with a spacing of 300 s between injections. To determine the heat of dilution similar injections of SNX17FERM-CT in buffer were carried out. The resulting titration data were analyzed using NanoAnalyze software (TA Instruments).
substance,measurement,setting,value
"SNX17: recombinant sorting nexin 17; His-Sumo3-SNX17 in co-sedimentation, SNX17FERM-CT in ITC",percentage of total protein bound to the pellet,[1],64 ± 17%
same,interaction with VPS26C,VPS26C,no direct interaction
